# Columns and labels:
# [1] = system: hepatocytes; assay: Glucose production by hepatic cells; type: cell-based, rat; settings: long-term, 0.01 μM (10 nM)
# Protocol: Hepatocytes are isolated from 24 h-fasted male Wistar rats (200-250 g body weight) by ex situ liver perfusion in the presence of collagenase. Cell viability is validated by a trypan blue exclusion test. […] After plating, the medium is removed and cells are cultured for 16 h in RPMI medium without glucose (supplemented with the tested drugs for long-term evaluation). The following day, hepatic glucose production is assessed in Krebs-Ringer Bicarbonate HEPES buffer (KRBH; pH 7.4) in the presence of the neoglucogenic substrates (lactate 10 mM and pyruvate 1 mM) and the tested molecules for 4 h (short-term).
# Supernatants are collected and glucose concentrations are determined using a glucose oxidase kit (Instrumentation Laboratory 0018250840). In parallel, protein quantification is performed using the colorimetric Lowry method.
# Results are expressed in nmol glucose/mg protein and % of control condition (KLP: KRBH containing lactate and pyruvate).
# [2] = system: beta pancreatic INS-1 cells; assay: Prevention of beta cells apoptosis (ssDNA apoptosis detection kit); type: cell-based; set-up: concentration or dose not given beside the values; settings: 1 h pre-incubation then 24 h in apoptotic conditions, drugs tested alone
# Protocol: The beta pancreatic INS-1 cells have been selected for this study. The cells are cultured in complete medium, RPMI 1640 10 mM glucose supplemented with 1 mM sodium pyruvate, 50 μM 2-mercaptoethanol, 2 mM glutamine, 10 mM HEPES, 100 IU/mL penicillin, 100 μg/mL streptomycin and 10% heat-inactivated fetal calf serum (FCS), as described by Asfari et al. (23). INS-1 cells are plated (4.5×10^4 cells/well) in 96-well poly-ornithine coated plates and cultured at 37° C. in a humidified atmosphere of 95% air/5% CO2. The day after, cells are pre-incubated with the tested molecules for 1 h. Then, after a medium change, cells are cultured for 24 h in a medium containing the tested molecules and 30 mM glucose, 0.05 mM myristic acid, 25 ng/mL INF, 25 ng/mL TNF and 5 ng/mL IL.
# The efficacy of compounds to prevent apoptosis is then evaluated by the highly specific apoptosis detection kit from Chemicon (Ref. APT225). This procedure is based on the detection of single-stranded DNA (ssDNA) which is a specific marker of apoptotic cells (24).
# Results are expressed in optical density (OD) arbitrary unit and % of reduction of the apoptosis induced by apoptotic condition. Following a Dunnett t-test, all compounds showing a significant decrease in % of apoptotic cells compared to apoptotic control conditions are considered active.
# [3] = system: human primary diabetic myotubes; assay: Glucose uptake in human diabetic myotube primary cultures; type: cell-based; settings: myotubes from a diabetic patient, 24 h pre-treatment
# Protocol: The myotubes from a diabetic patient were grown on HAM's F10-based media (Sigma, ref. N6908) supplemented with 15% of fetal bovine serum, 1 mM glutamine.
# Myoblasts were seeded at 380,000 cells/well in 12-well plates. After 2 days of proliferation, the cells were placed in reduced serum conditions (2% horse serum) to induce differentiation. The myotubes were used after 5 days of differentiation.
# Dulbecco's modified Eagle's medium (DMEM)-based media (Gibco, ref. 31053-028) supplemented with 2% heat-inactivated horse serum, 2% Glutamax (Gibco, ref. 35050) and washed for glucose uptake assays. Compounds were dissolved in DMSO to reach the desired final concentration prior to use.
# The differentiated myotubes were treated for 24 h with the compositions of the invention before the assay.
# Before the initiation of glucose uptake, the cells were deprived of serum and glucose. A deprivation was first performed in DMEM media containing reduced glucose (1 g/L) and no serum. After adding the compounds at the desired concentrations, the cells were incubated at 37° C. during 2 h30. […] A subsequent glucose and serum deprivation was performed in HBS buffer at 37° C. for 2 hours. The cells were treated with a mixture of 2-[^3H]deoxyglucose 10 Ci/mM+2-deoxy-D-glucose at 10 μM for 30 min. […] The cell lysates were transferred into scintillation vials for the measurement of radioactivity with a MicroBeta counter.
# [4] = system: TNFα-induced insulin resistant 3T3-L1 differentiated adipocytes; assay: Glucose uptake in TNFα-induced insulin resistant 3T3-L1 differentiated adipocytes; type: cell-based; settings: for enhancement of glucose uptake: drug alone, vs non-treated insulin-resistant cells (TNFα); for enhancement of glucose uptake, combination with metformin: ifenprodil 3.3 nM and metformin 100 μM, combined or alone at the same concentrations
# Protocol: 3T3L1 fibroblasts were maintained in DMEM 4.5 g/L glucose supplemented with 5% calf serum donor, 5% newborn calf serum, 100 U/mL penicillin, and 100 μg/mL streptomycin at 37° C. under a 10% CO2 atmosphere. Cells were grown on 24-well plates at a density of 2560 cells/well in 0.5 mL of growth medium (DMEM 4.5 g/L glucose supplemented with 10% FCS, 100 U/mL penicillin, and 100 μg/mL streptomycin). […] Fresh media were replaced after two days.
# Glucose uptake was measured by quantification of incorporated radiolabeled glucose, after an incubation step with 2-deoxy-D[1,2^3H] glucose for 5 min. Glucose uptake was arrested by two washing steps in ice-cold PBS 1×, then were solubilized in 0.1N NaOH for 30 min. Cell-associated radioactivity was then counted using a MicroBeta counter after adding 600 μL per well of scintillant (Optiphase SuperMix3).
# In parallel, protein quantification was determined by a colorimetric assay derived from the Lowry method. Results are expressed in nmol of glucose incorporated/5 mn/mg of protein and in % of control or basal condition (100%).
smiles,measurement,setting,value
CC(C(O)c1ccc(O)cc1)N1CCC(Cc2ccccc2)CC1 (stereo not shown) [ifenprodil],reduction of glucose production,[1],−22%
same,Percentage of apoptosis reduction,[2],54%
same,enhancement of glucose uptake,[3]; 0.1 μM,improvement
same,enhancement of glucose uptake,[3]; 1 μM,improvement
same,enhancement of glucose uptake,[4]; 10 nM,improvement
same,enhancement of glucose uptake,[4]; 100 nM,improvement
same,enhancement of glucose uptake,[4]; 1 μM,+140%
same,"enhancement of glucose uptake, combination experiment","[4]; drugs combined at a dose as low as 3.3 nM, or used individually, vs TNFα cells, Dunnett's test",No significant effect
same,"enhancement of glucose uptake, combination with metformin",[4]; vs TNFα cells,No significant effect
same,"enhancement of glucose uptake, combination with metformin","[4]; vs TNFα cells, listed as Ifenprodil",does not lead to any significant improvement

# Reference: US10596160B2, “Compositions, methods and uses for the treatment of diabetes and related conditions by controlling blood glucose level” (PHARNEXT, priority 2012, dated 2020)
